Molecular target: T1, recombinant human IL-8 type b receptor (IL-8 Rb, Type II, permissive receptor) (Homo sapiens, UniProt P25025)
T1 sequence (P25025 1-360): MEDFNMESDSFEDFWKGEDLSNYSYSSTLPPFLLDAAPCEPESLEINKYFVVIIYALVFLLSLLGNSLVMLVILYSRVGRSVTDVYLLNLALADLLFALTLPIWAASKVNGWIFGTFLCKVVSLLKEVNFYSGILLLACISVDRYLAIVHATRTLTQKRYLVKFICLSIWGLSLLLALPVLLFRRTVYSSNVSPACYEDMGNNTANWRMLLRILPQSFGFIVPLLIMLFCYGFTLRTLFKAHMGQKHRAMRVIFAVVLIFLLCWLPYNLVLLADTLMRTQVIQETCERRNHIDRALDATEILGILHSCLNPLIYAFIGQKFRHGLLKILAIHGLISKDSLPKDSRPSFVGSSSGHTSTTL
Assay: Receptor binding assay, [125I] IL-8 binding to IL-8 Rb (Type II, permissive) receptor membranes
Details: recombinant IL-8 Rb (Type II) CHO membranes
Procedure: The IL-8, and Gro-a chemokine inhibitiory effects of compounds of the present invention were determined by the following in vitro assay:
[^125 I] IL-8 (human recombinant) was obtained from Amersham Corp., Arlington Heights, Ill., with specific activity 2000 Ci/mmol. Gro-a was obtained from NEN- New England Nuclear. All other chemicals were of analytical grade. High levels of recombinant human IL-8 type a and b receptors were individually expressed in Chinese hamster ovary cells as described previously (Holmes, et al., Science, 1991, 253, 1278). The Chinese hamster ovary membranes were homogenized according to a previously described protocol (Haour, et al., J Biol Chem., 249 pp 2195-2205 (1974)). Except that the homogenization buffer was changed to 10 mM Tris-HCl, 1 mM MgS04, 0.5 mM EDTA (ethylene-diaminetetraacetic acid), 1 mM PMSF (a-toulenesulphonly flouride), 0.5 mg/L Leupeptin, pH 7.5. Membrane protein concentration was determined using Pierce Co. micro-assay kit using bovine serum albumin as a standard. All assays were performed in a 96-well micro plate format. Each reaction mixture contained ^125 I IL-8 (0.25 nM) or ^125 I Gro-a and 0.5 μg/mL of IL-8Ra or 1.0 μg/mL of IL-8Rb membranes in 20 mM Bis-Trispropane and 0.4 mM Tris HCl buffers, pH 8.0, containing 1.2 mM MgSO4, 0.1 mM EDTA, 25 mM NaCl and 0.03% CHAPS. In addition, drug or compound of interest was added which had been pre-dissolved in DMSO so as to reach a final concentration of between 0.01 nM and 100 uM. The assay was initiated by addition of ^125 I-IL-8. After 1 hour at room temperature the plate was harvested using a Tomtec 96-well harvester onto a glass fiber filtermat blocked with 1% polyethylenimine/0.5% BSA and washed 3 times with 25 mM NaCl, 10 mM TrisHCl, 1 mM MgSO4, 0.5 mM EDTA, 0.03% CHAPS, pH 7.4. The filter was then dried and counted on the Betaplate liquid scintillation counter. The recombinant IL-8 Ra, or Type I, receptor is also referred to herein as the non-permissive receptor and the recombinant IL-8 Rb, or Type II, receptor is referred to as the permissive receptor.

activity in the permissive models for IL-8 receptor inhibition (result in words)	Structure (SMILES)
inactive	CC(C)OCCNC(=O)Nc1ccc([N+](=O)[O-])cc1O [N-(ethylisopropylether)-N'-(2-hydroxy-4-nitro-phenyl)urea]
inactive	N#Cc1ccc(NC(=O)N[C@@H]2CCCC[C@H]2OCc2ccccc2)c(NS(=O)(=O)c2ccccc2)c1 (relative stereo) [N-trans-(2-benzyloxycyclohexyl)-N'-((2-benzenesulfonylamino)4-cyanophenyl))urea]
inactive	O=C(O)CCNC(=O)Nc1ccc([N+](=O)[O-])cc1O [N-(2-carboxyethyl)-N'-(2-hydroxy-4-nitrophenyl)urea]
inactive	CC(C)(COCc1ccccc1)NC(=O)Nc1ccc([N+](=O)[O-])cc1O [Example 6, N-(1,1-Dimethyl-2-benzoxyethyl)-N'-(2-hydroxy-4-nitrophenyl)urea]

From patent US6133319A, “IL-8 receptor antagonists” (SmithKline Beecham Corporation, priority 1999, dated 2000)
